Read-outs that look alike come from different tables or passages of the source.
Experiments:
[1] = biological target: T1, Presenilin-2-comprised γ-secretase (Homo sapiens, UniProt P49810); test: Aβ1-x ELISA in Presenilin-2 transfected PS1/PS2 double knockout mouse fibroblasts; type: cell-based; settings: for inhibition at 10 µM: compound concentration of 10 uM, estimated from the inhibition curve
T1 construct: expressed in transfected cells; host or cells: mouse fibroblasts derived from PS1/PS2 double knockout cells, pCF vector
Excerpt: (§1) A131-x represents any Aβ peptides longer than Aβ1-23, including Aβ38, Aβ40, and Aβ42, since Aβ1-x is defined operationally by an ELISA assay using proprietary antibody mAb 266 for capture and proprietary antibody mAb 3D6 for detection. The epitope for mAb266 is Aβ16-23, and the epitope for mAb 3D6 is Aβ1-5. […] Aβ40 ELISA employed antibodies mAb 266 as capture and 2G3 (specific for Ab40) as detection, respectively. Furthermore, Aβ42 ELISA employed antibodies mAb 266 as capture and 21F12 as detection, respectively. Hybridomas producing antibodies against Aβ16-23 were generated by standard murine fusion procedures as detailed in Kohler and Milstein (Nature 256:495 1975) and U.S. Pat. No. 4,666,829 which are hereby incorporated by reference in their entireties. See also “Detailed Description” herein. Briefly, two BALB/c mice immunized with Aβ13-28 conjugated to 2C-11 (a T-cell receptor monoclonal antibody) were sacrificed and the spleens removed. Mixed splenocytes were obtained by pressing the spleens through a 30 mesh stainless steel screen. These were fused with P3X63Ag8 murine myeloma cells (aminopterin sensitive) at a fusion ratio of 10:1 in 35% polyethylene-glycol. These cells were plated out in 96 well tissue culture plates in the presence of 2×10^6 thymocytes/ml. Hybridomas were selected for by growing the cells in the presence of aminopterin poisoned Dulbecco's modified Eagle's media augmented with hypoxanthine, thymine and 10% fetal bovine serum. Hybridomas were screened for reactivity against Aβ13-28 and AAP protein via ELISA. Positive clones were sub-cloned twice. Aliquots of the clones were frozen and stored in liquid nitrogen. Supernatants from positive clones were produced in large quantities for further purification of monoclonal antibodies.
(§2) For ELISA assays, each well of 96-well ELISA plates was coated with 100 μl of 10 μg/ml 266 in Well Coating Buffer (pH 8.5) at 4 degrees overnight, and blocked with 0.25% human BSA solution at 25 degrees for 120 minutes. The plate can be used directly without wash, after removing blocking solution.
(§3) ELISA assays were performed at room temperature. Fifty μl of conditioned medium from overnight culture of transfected cells, with or without gamma secretase inhibitors, were added to each well of ELISA plates, and incubated for 1 hour. After washing plates with Tris-buffered saline (TBS) plus 0.05% Tween-20, 50 μl biotinylated 3D6 antibody at 0.5 μg/ml was added to each well and incubate for 45 minutes. […] Next, plates were washed with Tris-buffered saline (TBS) plus 0.05% Tween-20, and 50 μl substrate (1-step slow TMB-Elisa, Pierce, Woburn, Mass., USA, catalogue number: 34024) was added to each well and incubated for 15 min. Finally, substrate reactions were terminate by adding to each well 15 ul 2 NH2SO4, and OD readings were obtained on SpectraMax Plus (Molecular Devices, Sunnyvale, Calif., USA). The Aβ concentration of samples was then obtained by comparing sample OD readings to those of standards.
(§4) EC50 values were derived by curve fitting of Aβ1-x levels, for samples treated with various concentrations of gamma secretase inhibitors, with XLfit software program (IDBS, Alameda, Calif., USA). Differences in EC50 values obtained for Presenilin-1 transfected cells and Presenilin-2 transfected cells exposed to a test compound served as an indicator of differential inhibition.
(§5) Transfected mouse fibroblasts derived from the PS1/PS2 double knockout cells are grown at 37 degree under 10% CO2 in Dulbecco's modified Eagle's medium (DMEM) containing 2-10% fetal bovine serum (FBS) and 100 μg/ml penicillin/streptomycin (Pen/Strp) (Invitrogen Corporation, Carlsbad, Calif., USA).
(§6) Cell culture medium is then removed from the transfected cell lines and analyzed for Aβ1-x levels by ELISA assay, as described in Example 1. ELISA assays are performed using ELISA plates coated with the mAb 266 to capture Aβ peptides and then by detecting Aβ peptides with biotinylated mAb 3D6.

[2] = tested on: Presenilin-1-comprised γ-secretase relative to Presenilin-2-comprised γ-secretase; test: PS1/PS2 selectivity: ratio of EC50 in Presenilin-2 and Presenilin-1 transfected cells; type: cell-based, human; settings: for PS2/PS1 EC50 ratio: EC50 of Presenilin-2 transfected cells over Presenilin-1 transfected cells
Excerpt: as §4
as §6, with “3D6. EC50 values are derived for all of the test compounds. Differences in EC50 values obtained for Presenilin-1 transfected cells and Presenilin-2 transfected cells exposed to a test compound serve as an indicator of differential inhibition.” for “3D6.”
For example, several tested compounds are sulfonamide compounds, while several are non-sulfonamide compounds. The ratio of the EC50 value obtained for Presenilin-2 transfected cells and Presenilin-1 transfected cells (indicated in the last column of Table I) indicates the degree to which the test compound is capable of preferentially inhibiting Presenilin-1. […] In Table 2, the values shown in columns A, B and C are EC50 values (nM). Where inhibition was very low, EC50 values were not generated by the program; thus EC50 values are not provided. Rather, percent of inhibition was estimated based on the inhibition curve generated by the program. Percentages indicate percentage inhibition at a compound concentration of 10 uM. […]

[3] = biological target: T2, Presenilin-1-comprised γ-secretase (Homo sapiens, UniProt P49768); test: Aβ1-x ELISA in Presenilin-1 transfected PS1/PS2 double knockout mouse fibroblasts; type: cell-based
T2 construct: expressed in transfected cells; host or cells: mouse fibroblasts derived from PS1/PS2 double knockout cells, pCF vector
Excerpt: as §1, §2, §3, §4, §5, §6

293sw = 293sw IC50 of gamma-secretase inhibitors; type: cell-based
[4] = column A, Aβ1-x, Presenilin-2 transfected cells, overnight, read-out: PS2 EC50* (nM) A
[5] = column B, Aβ1-x, Presenilin-2 transfected cells, overnight, read-out: PS2 EC50* (nM) B
[6] = column A, Aβ1-x, Presenilin-1 transfected cells, overnight, read-out: PS1 EC50 (nM) A
[7] = column B, Aβ1-x, Presenilin-1 transfected cells, overnight, read-out: PS1 EC50 (nM) B
[8] = mean values from 2 independent experiments (FIG. 11)
[9] = column A, read-out: PS2 percentage inhibition, column A
[10] = column B, read-out: PS2 percentage inhibition, column B
[11] = column C, Aβ1-x, Presenilin-1 transfected cells, overnight, read-out: PS1 EC50 (nM) C

Row | EC50 [1, 4] | EC50 [1, 5] | PS2/PS1 EC50 ratio [2] | EC50 [3, 6] | EC50 [3, 7] | EC50 [3, 11] | Compound | IC50 (293sw) | also measured
1 | 465 nM | 777 nM | 4 | 143 nM | 139 nM |  | C[C@H](NC(=O)c1ccc(CN([C@@H]2CCCCNC2=O)S(=O)(=O)c2ccc(Cl)cc2)cc1)c1ccccc1 |  | 
2 |  |  |  |  |  |  | CC(C)C[C@H](NC(=O)[C@H](Cc1ccccc1)C[C@@H](O)[C@H](Cc1ccccc1)NC(=O)OC(C)(C)C)C(=O)N[C@@H](Cc1ccccc1)C(N)=O [L-685,458, reference compound] |  | fold more selective for PS1 [2, 8]: ~3 fold
3 |  |  | >10 | 2170 nM | 1980 nM |  | C/C(=C\c1ccccc1)CN([C@@H]1CCNC1=O)S(=O)(=O)c1ccc(Cl)cc1 | 337 nM | inhibition at 10 µM [1, 9]: 1%; inhibition at 10 µM [1, 10]: 0%
4 | 750 nM | 809 nM | 8 | 105 nM | 98 nM |  | Cc1nc(-c2ccc(CN([C@@H]3CCCCNC3=O)S(=O)(=O)c3ccc(Cl)cc3)cc2)no1 | 44 nM | 
5 |  |  | >10 | 3720 nM | 6960 nM |  | O=C1NCCCC[C@H]1N(CCCN1C(=O)c2ccccc2C1=O)S(=O)(=O)c1ccc(Cl)cc1 | 221 nM | inhibition at 10 µM [1, 9]: 28%; inhibition at 10 µM [1, 10]: 4%
6 | 1980 nM | 1840 nM | 23 | 84 nM | 53 nM | 114 nM | Cn1nnc2cc(CN([C@@H]3CCCCNC3=O)S(=O)(=O)c3ccc(Cl)nc3)ccc21 | 238 nM | 
7 | 26 nM | 23 nM | 2 | 8.2 nM | 8.3 nM | 19 nM | C[C@H](NC(=O)[C@@H](O)c1cc(F)cc(F)c1)C(=O)Nc1cc(C(C)(C)c2ccccc2)n[nH]1 | 1 nM | 
8 |  |  | ˜30 | 228 nM | 425 nM |  | COc1ccc(CN(C2CCCCNC2=O)S(=O)(=O)c2ccc(Cl)cc2)cc1OC (stereo not shown) |  | inhibition at 10 µM [1, 9]: 45%; inhibition at 10 µM [1, 10]: 50%
9 | 5000 nM | 5700 nM | 10 | 153 nM | 868 nM | 598 nM | CCS(=O)(=O)CC[C@@H](C)N(c1cc(Cl)ccc1Cl)S(=O)(=O)c1ccc(Cl)cc1 | 182 nM | 
10 | 2100 nM | 2580 nM | 11 | 212 nM | 116 nM |  | CSc1ncccc1-c1nc(CN([C@@H]2CCCCNC2=O)S(=O)(=O)c2ccc(Cl)cc2)no1 | 112 nM | 
11 | 589 nM | 924 nM | 15 | 40 nM | 75 nM | 42 nM | Cn1nnc2cc(CN([C@@H]3CCCCNC3=O)S(=O)(=O)c3ccc(Cl)cc3)ccc21 | 51 nM | 
12 | 2420 nM | 1880 nM | 46 | 30 nM | 63 nM | 50 nM | O=C1NCCCC[C@H]1N(Cc1cc2ccccc2o1)S(=O)(=O)c1ccc(Cl)cc1 |  | EC50 ([1]; column C, Aβ1-x, Presenilin-2 transfected cells, overnight, read-out: PS2 EC50* (nM) C): 2380 nM
13 | 223 nM | 247 nM | 12 | 21 nM | 17 nM |  | C[C@H](c1ccc(F)cc1CCCC(=O)O)N(c1cc(F)ccc1F)S(=O)(=O)c1ccc(Cl)cc1 [reference compound] |  | 
14 |  |  |  |  |  |  | C[C@H](NC(=O)[C@@H](O)c1cc(F)cc(F)c1)C(=O)N[C@@H]1C(=O)N(C)c2ccccc2-c2ccccc21 | 0.064 nM | 
15 |  |  |  |  |  |  | COc1ccc(CN([C@H]2CCCCNC2=O)S(=O)(=O)c2ccc(Cl)cc2)cc1OC | 10000 nM | EC50 ([1]; column A, bound given in μM, read-out: PS2 EC50 A): > 10000 nM; EC50 ([1]; column B, bound given in μM, read-out: PS2 EC50 B): > 10000 nM; EC50 ([3]; column A, bound given in μM, read-out: PS1 EC50 A): > 10000 nM; EC50 ([3]; column B, bound given in μM, read-out: PS1 EC50 B): > 10000 nM
16 |  |  |  |  |  |  | C[C@H](NC(=O)Cc1cc(F)cc(F)c1)C(=O)N[C@H](C(=O)OC(C)(C)C)c1ccccc1 [DAPT, reference compound] |  | fold more selective for PS2 [2, 8]: 2 fold

Reference: US20080045499A1, “Preferential Inhibition of Presenilin-1” (Elan Pharmaceuticals, Inc., priority 2006, published 2008)
